{
  "source": "patent US8586556B2",
  "about": "“Methods, compositions and drug delivery systems for intraocular delivery of siRNA molecules” (Allergan, Inc., priority 2006, dated 2013)",
  "tested_on": "neovascularization",
  "experiment": "Placement of the drug delivery systems into the vitreous of an eye: duration of therapeutic benefit",
  "format": "in vivo",
  "details": "drug delivery system placed into the vitreous of an eye",
  "text": "Drug delivery systems which comprise about 86.1 milligrams of Cand5 can be produced similar to those systems described in Examples 1. Such drug delivery systems release Cand5 at a rate from about 49.7 micrograms per day to about 4970 micrograms per day. The release rates can be measured using in vitro and/or in vivo assays as described above. […] Improvements in patient function, such as vision and intraocular pressure, can be observed at longer time periods.\nDrug delivery systems which comprise about 86.1 milligrams of siRNA Z can be produced similar to those systems described in Examples 1, above. Such drug delivery systems release siRNA Z at a rate from about 49.7 micrograms per day to about 4970 micrograms per day. The release rates can be measured using in vitro and/or in vivo assays as described above. […] Improvements in patient function, such as vision and intraocular pressure, can be observed at longer time periods.",
  "data": [
    {"substance": "Cand5: siRNA from Acuity Pharmaceuticals/Avecia that silences genes producing VEGF; sense SEQ ID NO: 3, antisense SEQ ID NO: 4 (sense ACCUCACCAAGGCCAGCAC; antisense GUGCUGGCCUUGGUGAGGU; listed as RNA, chemistry not fully specified; listed as Homo Sapiens)", "values": [
      {"measurement": "duration of therapeutic benefits, such as the treatment of neovascularization, after a single administration", "value": "at least about thirty days"}
    ]}
  ]
}
